SMILES strings stand for the structures. “And” between values parts separate entries of the source, which are not always exact repeats. Identical values can stand only once.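 In this assay, cells in 96-well plates receive the compound at five concentrations for 48 hours. Endpoints are linearly interpolated between the surrounding concentrations. Abbreviation: GI50, concentration required for 50% inhibition of growth. TGI: total growth inhibition.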

Here are results for 34 compounds from PubChem BioAssay (NCI).

The test system of this test is MDA-MB-468 breast. Put plainly: DTP human tumour cell line panel, 48 h.

As usually defined, the GI50 is the concentration that inhibits growth by half. As usually defined, the TGI is the concentration giving total growth inhibition. As to `O=C(COc1cccc(/C=C2\Oc3ccc4ccccc4c3C2=O)c1)c1ccc(Cl)cc1`, the GI50 was 9620 nM and the TGI was found to be 43.3 µM.

Turning to `CCNNC(=O)[C@@H]1[C@H](c2cc(OC)c(OC)c(OC)c2)c2cc3c(cc2[C@H](O)[C@H]1CO)OCO3`, the GI50 was 281 nM.

For `COc1cccc(CCC(=O)c2cc3c(N)c(C(=O)Nc4cccc(Cl)c4C)sc3nc2C)c1`, the GI50 is 288 nM and the TGI was 2.82 µM.

With `CC(C)C[C@H](NC(=O)[C@@H](NC(=O)c1cccc(-c2ccccc2)n1)[C@@H](C)O)B(O)O`, the concentration for 50% growth inhibition (GI50) was 2.44 nM and the concentration for total growth inhibition (TGI) came to 0.00685 µM.

In the case of `CSc1ccc(SC2c3ccc(C)cc3Oc3nc(N)c(C#N)c(N)c32)cc1` (configuration not stated), the GI50 is 1740 nM and the TGI came out at 3.81 µM.

`COc1cc(C2CC(=O)Nc3c2ccc2ccccc32)cc(Br)c1OC` (configuration not stated): the GI50 was 285 nM and the TGI was 0.969 µM.

With `Clc1ccc(CNc2nccc(-c3cnn4ncccc34)n2)cc1`, the GI50 is 5620 nM and the total growth inhibition concentration (TGI) was determined as 12.7 µM.

As for `CCN(CC)CCn1c2ccc(OC)cc2c2sc3cc(OC)ccc3c(=O)c21`, the GI50 is 1560 nM and the TGI was determined as 3.21 µM.

`Nc1ccc(C(OC(=O)c2cc3ccccc3c(Cc3c(O)c(C(=O)OC(c4ccc(N)cc4)(c4ccc(N)cc4)c4ccc(N)cc4)cc4ccccc34)c2O)(c2ccc(N)cc2)c2ccc(N)cc2)cc1`: the GI50 was 252 nM and the total growth inhibition concentration (TGI) amounted to 2.13 µM.

With `COc1cccc(C2SC(C)C(=O)N2CCc2cccs2)c1` (configuration not stated), the GI50 was 2250 nM and the TGI was 7.32 µM.

Consider `CC(=O)Nc1ccc(NC(=O)Nc2cccc(-c3nc(-c4ccc(NC(=O)c5cccnc5)cc4Cl)no3)c2)cc1C(F)(F)F`, for which the GI50 was 234 nM and the TGI was 0.758 µM.

For `CC(C)C[C@H](NC(=O)CCn1ccc2ncccc2c1=O)B(O)O`, the GI50 is 2350 nM and the total growth inhibition concentration (TGI) was 14.4 µM.

On to `CCCCCCCCCCCCCCCCCCOc1ccccc1CC(=O)NCC[N+](C)(C)C`, for which the GI50 was 2470 nM and the concentration for total growth inhibition (TGI) worked out at 6.28 µM.

For `COC(=O)[C@H](C)NC(=O)[C@@H](OC)[C@@H]1Cc2cc3cc(OC4CC(OC5CC(O)C(O)C(C)O5)C(O)C(C)O4)c(C)c(O)c3c(O)c2C(=O)[C@H]1OC1CC(OC2CC(OC3CC(C)(O)C(O)C(C)O3)C(O)C(C)O2)C(O)C(C)O1` (some centres not stated), the GI50 was 112 nM and the concentration for total growth inhibition (TGI) worked out at 1.07 µM.

For `CN1C[C@@H]2Cn3c(c(C4=C(c5cn(C)c6ccccc56)C(=O)NC4=O)c4ccccc43)C[C@H]2C1`, the GI50 was 4040 nM and 3060 nM; the TGI is 9.12 µM and 6.64 µM.

Take `Nc1nccc2c1ncn2C1OC(CO)C(O)C1O` (configuration not stated): the GI50 is over 100000 nM and the TGI is over 100 µM.

For the compound `N#C/C(=C\c1c(-c2ccccc2)[nH]c2ccccc12)C(=O)c1ccccc1`, the GI50 is 5560 nM and the concentration for total growth inhibition (TGI) was over 100 µM.

As for `CCOC(=O)C(=CN1CCNC1=S)C(=O)OCC`, the GI50 is over 100000 nM and the total growth inhibition concentration (TGI) is over 100 µM.

On to `COc1c(Cl)ccc2c(-c3nc4cc(Cl)c(F)cc4s3)cc(=O)oc12`, for which the GI50 is 4890 nM and the total growth inhibition concentration (TGI) came to 34.4 µM.

As to `C[C@@H](COCCC(=O)N1CCN(c2ncc(C(F)(F)F)cn2)CC1)Nc1cn[nH]c(=O)c1C(F)(F)F`, the GI50 was 17900 nM and the TGI was over 100 µM.

Regarding `COc1ccc(-c2ccc(-c3ccc(C(=N)N)cn3)o2)cc1Cl`, the GI50 is 1840 nM and the TGI amounted to 3.51 µM.

Take `Cc1cc(C)c(S(=O)(=O)N(CCc2cccc(Br)c2)Cc2ccc(-c3cccc(S(C)(=O)=O)c3)cc2)c(C)c1`: the GI50 was over 100000 nM and the total growth inhibition concentration (TGI) is over 100 µM.

For `CCOc1nccc2c1nc(-c1nonc1N)n2CC`, the GI50 was over 25000 nM and the total growth inhibition concentration (TGI) was over 25 µM.

For `Cc1ncc(C(=O)Nc2ccc(CN3CCN(C)CC3)c(C(F)(F)F)c2)cc1C#Cc1c(N)ncc2ccccc12`, the GI50 is 577 nM and the total growth inhibition concentration (TGI) amounted to 1.15 µM.

Regarding `COC(=O)[C@]12CC[C@@H](C)[C@H](C)[C@@H]1C1=CC[C@@H]3[C@@]4(C)C(C=O)=C[C@@](C)(COS(C)(=O)=O)C4[C@H](O)C[C@@]3(C)[C@]1(C)CC2` (some centres not stated), the GI50 is 2080 nM and the TGI was 4.1 µM.

For the compound `COc1cc(F)c(/C=C/c2cc(/C=C/c3cc(OC)c(OC)cc3F)n(-c3cc(F)cc(F)c3)n2)cc1OC`, the GI50 is 2390 nM and the TGI stood at 5.72 µM.

As to `Cc1cc(N(CCCNc2ccnc3cc(Cl)ccc23)Cc2ccc3c(c2)OCO3)nc(N2CCCCC2)n1`, the GI50 was 1950 nM and the TGI was determined as 4.67 µM.

On to `Cn1cnc2c(F)c(Nc3ccc(Br)cc3F)c(C(=O)NOCCO)cc21`, for which the GI50 was 26900 nM and the TGI is over 83.4 µM.

With `NC(=O)c1ccccc1NC(=O)c1ccccc1Cl`, the GI50 was over 100000 nM and the TGI is over 100 µM.

For `COc1ccc(-c2cc(-c3cccc(NS(C)(=O)=O)c3)nc(N)c2C#N)cc1`, the GI50 was 1350 nM and the concentration for total growth inhibition (TGI) was 6.64 µM.

As for `COc1ccc(Cn2cc3c(c2-c2cc(OC)c(OC)c(OC)c2)CCc2cnoc2-3)cc1N`, the GI50 is 25.1 nM and the total growth inhibition concentration (TGI) was 0.0735 µM.

Turning to `COc1cc(NC(=O)NCc2ccco2)ccc1-c1ccc(NC(=O)NCc2ccco2)cc1OC`, the GI50 was 1820 nM and the concentration for total growth inhibition (TGI) stood at 4.61 µM.

With `Cc1ccc(Nc2cc(C)nc(NCCCNc3ccnc4cc(Cl)ccc34)n2)cc1`, the GI50 is 1430 nM and the total growth inhibition concentration (TGI) is 2.92 µM.

Turning to `O=C(N/N=C/c1ccc(Cl)cc1Cl)c1ccc2nc(-c3ccc(Cl)cc3)[nH]c2c1`, the GI50 is 1640 nM and the concentration for total growth inhibition (TGI) is 3.23 µM.
